The values below are quoted from earlier work in PubChem BioAssay AID1259409 (Chemical Carcinogenesis Research Information System (CCRIS), 2018).

Several values for one entry are separate records, joined by “and”; a condition that tells them apart may be missing. Equal values may be shown once.

For the series, the system named is rodent chemically induced tumor inhibition, incidence and multiplicity. The series is described as follows: CCRIS tumor inhibitor studies. Particulars: Route [Inhibitor]: ORAL; for tumour outcome (control, treated, inhibition, significance): Promoter: NONE USED; for outcome: Carcinogen: NONE, Strain/Sex: APC/MIN/MALE, Promoter: NONE.

For `CN1C(C(=O)Nc2ccccn2)=C(O)c2ccccc2S1(=O)=O`, the “tumour outcome (control, treated, inhibition, significance)” value (Carcinogen: N-BUTYL-N-(4-HYDROXYBUTYL)NITROSAMINE, 3817-11-6, Dose [Inhibitor]: 0, 0.0075% IN DIET FOR 12 WK BEGINNING POST CARCINOGEN TREATMENT (STUDY DURATION: 20 WK), Species: RAT, Strain/Sex: F344/MALE, Target Tissue: Type of Lesion: URINARY BLADDER: TRANSITIONAL CELL CARCINOMA, Dose [Carcinogen]: 0.05% IN DRINKING WATER FOR 8 WK) is given as 10/12 (83%), 4/12 (33%), 60%, p<0.05; the “tumour outcome (control, treated, inhibition, significance)” value (Carcinogen: N-BUTYL-N-(4-HYDROXYBUTYL)NITROSAMINE, 3817-11-6, Dose [Inhibitor]: 0, 15 MG/KG DIET BEGINNING 1 WK PRIOR TO CARCINOGEN TREATMENT AND CONTINUING FOR DURATION OF STUDY (STUDY DURATION: 180, Species: MOUSE, Strain/Sex: BDF/MALE, Target Tissue: Type of Lesion: BLADDER: CARCINOMA, Dose [Carcinogen]: 7.5 MG IN 0.1 ML OF ETHANOL:WATER (20:80) 1/WK FOR 8 WK) is on record as 25/63 (40%), 5/69 (7%), 83%, p<0.0001; the “tumour outcome (control, treated, inhibition, significance)” value (Carcinogen: N-BUTYL-N-(4-HYDROXYBUTYL)NITROSAMINE, 3817-11-6, Dose [Inhibitor]: 0, 30 MG/KG DIET BEGINNING 1 WK PRIOR TO CARCINOGEN TREATMENT AND CONTINUING FOR DURATION OF STUDY (STUDY DURATION: 180, Species: MOUSE, Strain/Sex: BDF/MALE, Target Tissue: Type of Lesion: BLADDER: CARCINOMA, Dose [Carcinogen]: 7.5 MG IN 0.1 ML OF ETHANOL:WATER (20:80) 1/WK FOR 8 WK) was 28/65 (43%), 7/56 (13%), 70%, p<0.001; the “tumour outcome (control, treated, inhibition, significance)” value (Carcinogen: N-BUTYL-N-(4-HYDROXYBUTYL)NITROSAMINE, 3817-11-6, Dose [Inhibitor]: 0, 75 PPM IN DIET FOR 12 WK BEGINNING POST CARCINOGEN TREATMENT (STUDY DURATION: 20 WK), Species: RAT, Strain/Sex: F344/MALE, Target Tissue: Type of Lesion: URINARY BLADDER: TRANSITIONAL CELL CARCINOMA, Dose [Carcinogen]: 0.05% IN DRINKING WATER FOR 8 WK) was 18/20 (90%), 3/19 (16%), 82%, p<0.0001; the “tumour outcome (control, treated, inhibition, significance)” value (Carcinogen: N-METHYL-N-NITROSOUREA, 684-93-5, Dose [Inhibitor]: 130 MG/KG DIET DAILY STARTING 7 D AFTER LAST CARCINOGEN TREATMENT AND CONTINUING FOR 19 WK (STUDY DURATION: 21 WK), Species: RAT, Strain/Sex: SPRAGUE-DAWLEY/MALE, Target Tissue: Type of Lesion: INTESTINES: TUMOR, Dose [Carcinogen]: 0.8% IN 0.5 ML WATER 3 TIMES AT 2 D INTERVALS) was 9/9 (100%), 5/10 (50%), 50%, not calculated and 9/9 (100%), 3/9 (33%), 67%, not calculated; the “tumour outcome (control, treated, inhibition, significance)” value (Carcinogen: N-METHYLNITROSOUREA, 684-93-5, Dose [Inhibitor]: 0, 130 MG/KG VEGETABLE DIET (2.5 MG/D) BEGINNING 7 D POST LAST CARCINOGEN TREATMENT AND CONTINUING FOR STUDY DURATION (S, Species: RAT, Strain/Sex: CD-1/MALE, Target Tissue: Type of Lesion: INTESTINE: TUMOR, Dose [Carcinogen]: 0.5 ML OF 0.8% WATER SOLUTION 1/2 D FOR 6 D) is 9/9 (100%), 3/9 (33%), 67%, not calculated. The outcome by setting is: (Dose [Inhibitor]: 12 PPM IN DIET FOR 2 MONTHS (STUDY DURATION: 2 MONTHS), Species: MOUSE, Target Tissue: Type of Lesion: DISTAL SMALL INTESTINE: TUMOR) 10.38, 5.47, 47%, p<0.01; (Dose [Inhibitor]: 12 PPM IN DIET FOR 2 MONTHS (STUDY DURATION: 2 MONTHS), Species: MOUSE, Target Tissue: Type of Lesion: MIDDLE SMALL INTESTINE: TUMOR) 23.75, 16.20, 32%, not significant; (Dose [Inhibitor]: 12 PPM IN DIET FOR 2 MONTHS (STUDY DURATION: 2 MONTHS), Species: MOUSE, Target Tissue: Type of Lesion: PROXIMAL SMALL INTESTINE: TUMOR) 7.63, 14.80, -94%, p<0.01; (Dose [Inhibitor]: 25 PPM IN DIET FOR 2 MONTHS (STUDY DURATION: 2 MONTHS), Species: MOUSE, Target Tissue: Type of Lesion: DISTAL SMALL INTESTINE: TUMOR) 10.38, 2.50, 76%, p<0.001; (Dose [Inhibitor]: 25 PPM IN DIET FOR 2 MONTHS (STUDY DURATION: 2 MONTHS), Species: MOUSE, Target Tissue: Type of Lesion: MIDDLE SMALL INTESTINE: TUMOR) 23.75, 10.93, 38%, p<0.001; (Dose [Inhibitor]: 50 PPM IN DIET FOR 2 MONTHS (STUDY DURATION: 2 MONTHS), Species: MOUSE, Target Tissue: Type of Lesion: DISTAL SMALL INTESTINE: TUMOR) 10.38, 2.60, 75%, p<0.001. Besides, the outcome is 23.75, 14.73, 38%, p<0.05 (Dose [Inhibitor]: 50 PPM IN DIET FOR 2 MONTHS (STUDY DURATION: 2 MONTHS), Species: MOUSE, Target Tissue: Type of Lesion: MIDDLE SMALL INTESTINE: TUMOR); 10.38, 1.60, 85%, p<0.001 (Dose [Inhibitor]: 100 PPM IN DIET FOR 2 MONTHS (STUDY DURATION: 2 MONTHS), Species: MOUSE, Target Tissue: Type of Lesion: DISTAL SMALL INTESTINE: TUMOR); 23.75, 10.40, 56%, p<0.001 (Dose [Inhibitor]: 100 PPM IN DIET FOR 2 MONTHS (STUDY DURATION: 2 MONTHS), Species: MOUSE, Target Tissue: Type of Lesion: MIDDLE SMALL INTESTINE: TUMOR).
